As usually defined, the IC50 is the concentration that gives 50% inhibition.

The subject of one assay is BGC-823. In words: Antiproliferative activity against human BGC-823 cells incubated for 48 hrs by MTT assay. Format: functional, cell-based. The conditions noted are these: BGC-823, 48 h.
The next assay has as its system MGC-803. Description: Antiproliferative activity against human MGC-803 cells incubated for 48 hrs by MTT assay. Format: functional, cell-based. The conditions noted are these: MGC-803, 48 h. A general note: Tetrazolium assays rely on reduction of a dye to a coloured formazan, in cell work by metabolically active cells.
The test system of assay [1] is K562/A02. Description: Antiproliferative activity against human K562/A02 cells incubated for 48 hrs by MTT assay. It counts as functional, cell-based. The following applies: K562/A02, 48 h.
The next assay has as its system SK-OV-3. In words: Antiproliferative activity against human SKOV3 cells incubated for 48 hrs by MTT assay. The following applies: SK-OV-3, 48 h. Format: functional, cell-based.
Assay [2] deals with HL-60. Description: Antiproliferative activity against human HL-60 cells incubated for 48 hrs by MTT assay. Format: functional, cell-based. The following applies: HL-60, 48 h.
Assay [3] deals with HL-60. Description: Potency index, ratio of cisplatin IC50 to test compound IC50 for antiproliferative activity against human HL-60 cells. Format: functional.
Assay [4] has as its system SMMC-7721. In words: Antiproliferative activity against human SMMC-7721 cells incubated for 48 hrs by MTT assay. The conditions noted are these: SMMC-7721, 48 h. Format: functional, cell-based.
The test system of assay [5] is SW480. Description: Antiproliferative activity against human SW480 cells incubated for 48 hrs by MTT assay. It counts as functional, cell-based. The following applies: SW480, 48 h.
The subject of assay [6] is SW480. Description: Potency index, ratio of cisplatin IC50 to test compound IC50 for antiproliferative activity against human SW480 cells. It counts as functional.
For assay [7], the system named is SMMC-7721. In words: Potency index, ratio of cisplatin IC50 to test compound IC50 for antiproliferative activity against human SMMC7721 cells. It counts as functional.
Assay [8] deals with MCF7. In words: Antiproliferative activity against human MCF7 cells incubated for 48 hrs by MTT assay. It counts as functional, cell-based. The conditions noted are these: MCF7, 48 h.
The test system of assay [9] is A549. Description: Potency index, ratio of cisplatin IC50 to test compound IC50 for antiproliferative activity against human A549 cells. Format: functional.
For assay [10], the system named is MCF7. Description: Potency index, ratio of cisplatin IC50 to test compound IC50 for antiproliferative activity against human MCF7 cells. It counts as functional.
Assay [11] concerns A549. In words: Antiproliferative activity against human A549 cells incubated for 48 hrs by MTT assay. Format: functional, cell-based. The conditions noted are these: A549, 48 h.
A further assay deals with KB. In words: Cytotoxicity against human KB cells by MTT assay. It counts as functional, cell-based.
Assay [12] in a line: Cytotoxicity against human KBV cells by MTT assay. Format: functional, cell-based.
The subject of assay [13] is K562/A02. In words: Cytotoxicity against human K562/A02 cells by SRB assay. It counts as functional, cell-based. For orientation: Sulforhodamine B stains cellular protein and so reports cell mass.
The subject of assay [14] is HeLa. In words: Cytotoxicity against human HeLa cells by MTT assay. It counts as functional, cell-based.
Assay [15] concerns K562. In words: Cytotoxicity against human K562 cells by SRB assay. It counts as functional, cell-based.
For assay [16], the system named is K562/Adr. In words: Antiproliferative activity against human K562/ADM cells incubated for 48 hrs by MTT assay. Format: functional, cell-based.
For assay [17], the system named is HeLa. Description: Antiproliferative activity against human HeLa cells incubated for 48 hrs by MTT assay. It counts as functional, cell-based.
The test system of assay [18] is K562. In words: Antiproliferative activity against human K562 cells incubated for 48 hrs by MTT assay. The conditions noted are these: K562, 48 h. It counts as functional, cell-based.
The test system of assay [19] is K562/Adr. Description: Potency index, ratio of etoposide IC50 to test compound IC50 for antiproliferative activity against human K562/ADM cells. It counts as functional.
Assay [20] deals with MCF7. In words: Antiproliferative activity against human MCF7 cells incubated for 24 hrs by MTT assay. Format: functional, cell-based. The following applies: MCF7, 24 h.
A further assay concerns Vero. In words: Cytotoxicity against African green monkey Vero cells. Format: cell-based. The following applies: Chlorocebus sabaeus.
For a further assay, the system named is HepG2. Description: Antiproliferative activity against human HepG2 cells incubated for 48 hrs by MTT assay. It counts as functional, cell-based. The following applies: HepG2, 48 h.
Assay [21] in a line: Cytotoxicity against PBMC (unknown origin) incubated for 24 hrs by CCK8 assay.
Assay [22] relates to HeLa. In words: Antiproliferative activity against human HeLa cells incubated for 24 hrs by MTT assay. It counts as functional, cell-based.
In assay [23] the test system is A549. Description: Antiproliferative activity against human A549 cells incubated for 24 hrs by MTT assay. Format: functional, cell-based. The following applies: A549, 24 h.
For assay [24], the system named is L02. In words: Cytotoxicity against human L02 cells. It counts as cell-based.
The test system of assay [25] is L02. Description: Cytotoxicity against human L02 cells incubated for 24 hrs by CCK8 assay. The conditions noted are these: L02, 24 h. It counts as functional, cell-based.
Another assay deals with Calu-1. Description: Antiproliferative activity against human Calu-1 cells incubated for 24 hrs by MTT assay. It counts as functional, cell-based. The conditions noted are these: Calu-1, 24 h.
In assay [26] the test system is L02. Description: Cytotoxicity against human HL7702 cells incubated for 48 hrs by MTT assay. The conditions noted are these: L02, 48 h. It counts as cell-based.

As to `COc1cc(C(=O)/C=C/c2ccc(F)cc2)ccc1OCc1cn([C@@H]2c3cc4c(cc3[C@@H](c3cc(OC)c(OC)c(OC)c3)[C@H]3C(=O)OC[C@@H]32)OCO4)nn1`, the IC50 with BGC-823, in the assay with MGC-803, in the assay with K562/A02 [1] and in the assay with SK-OV-3 was 530 nM each time.
For `COc1cc([C@@H]2c3cc4c(cc3[C@@H](n3cc(COC[C@H]5O[C@@H](OCc6cn([C@@H]7c8cc9c(cc8[C@@H](c8cc(OC)c(O)c(OC)c8)[C@H]8C(=O)OC[C@@H]87)OCO9)nn6)[C@H](OC(C)=O)[C@@H](OC(C)=O)[C@@H]5OC(C)=O)nn3)[C@H]3COC(=O)[C@H]23)OCO4)cc(OC)c1O`, the 50% inhibitory concentration (IC50) in the assay with HL-60 [2], in the assay on SMMC-7721 [4], in the assay with SW480 [5], with MCF7 [8] and in the assay on A549 [11] was 14 µM throughout. Also, the “Ratio IC50” value with HL-60 [3], with SW480 [6], with SMMC-7721 [7], in the assay with A549 [9] and in the assay on MCF7 [10] was 2.8 throughout.
Regarding `CCCC(=O)O[C@@H]1[C@@H](OC(=O)CCC)[C@H](OCc2cn([C@@H]3c4cc5c(cc4[C@@H](c4cc(OC)c(O)c(OC)c4)[C@H]4C(=O)OC[C@@H]43)OCO5)nn2)O[C@H](COCc2cn([C@@H]3c4cc5c(cc4[C@@H](c4cc(OC)c(O)c(OC)c4)[C@H]4C(=O)OC[C@@H]43)OCO5)nn2)[C@H]1OC(=O)CCC`, the IC50 in the assay with HL-60 [2], in the assay with SMMC-7721 [4], in the assay on SW480 [5], in the assay with MCF7 [8] and in the assay with A549 [11] was 14 µM each time. Also, the “Ratio IC50” value in the assay on HL-60 [3], in the assay on SW480 [6], with SMMC-7721 [7], with A549 [9] and in the assay with MCF7 [10] was 2.8 throughout.
Consider `COC(=O)c1cccc2c1c(C(=O)C(=O)N[C@@H]1c3cc4c(cc3[C@@H](c3cc(OC)c(OC)c(OC)c3)[C@H]3C(=O)OC[C@@H]31)OCO4)cn2C(=O)c1ccccc1`, for which the IC50 in the assay on KB was determined as 3.16 µM; in assay [12] it was 0.15 µM; in the assay on K562/A02 [13], 150 nM; with HeLa [14], 150 nM; in the assay on K562 [15], 150 nM.
In the case of `COc1cc([C@@H]2c3cc4c(cc3[C@@H](n3cnc([N+](=O)[O-])c3)[C@H]3COC(=O)[C@H]23)OCO4)cc(OC)c1O`, the IC50 stood at 4.16 µM in the assay with K562/Adr [16], 8.12 µM in the assay with HeLa [17] and 4.16 µM in the assay with K562 [18]. Besides, in the assay with K562/Adr [19], the “Ratio IC50” value was 18.4.
On to `COc1cc([C@@H]2c3cc4c(cc3[C@H](O)[C@H]3COC(=O)[C@H]23)OCO4)cc(OC)c1OC` [PODOFILOX], for which the IC50 was found to be 2130 nM in the assay with MCF7 [20]; 1040 nM in the assay with Vero; 4.31 µM in the assay on HepG2; 4310 nM in the assay with BGC-823; 5.02 µM in [21]; 2130 nM in the assay with HeLa [22]. Besides, the concentration for half-maximal inhibition (IC50) in the assay with A549 [23] was 2130 nM; with L02 [24], 3.16 µM; in the assay with L02 [25], 2970 nM; in the assay with A549 [11] it was 4.31 µM; with Calu-1, 2680 nM; in the assay with L02 [26] it was 4.31 µM.
In assay [12], `CC[C@]1(O)C[C@H]2CN(CCc3c([nH]c4ccccc34)[C@@](C(=O)OC)(c3cc4c(cc3OC)N(C=O)[C@H]3[C@@](O)(C(=O)OC)[C@H](OC(C)=O)[C@]5(CC)C=CCN6CC[C@]43[C@@H]65)C2)C1` [VINCRISTINE] yielded an IC50 of 50.3 µM.

Values taken from ChEMBL document CHEMBL4818987, “Recent advances of podophyllotoxin/epipodophyllotoxin hybrids in anticancer activity, mode of action, and structure-activity relationship: An update (2010-2020)” (Eur J Med Chem, 2020).
